Test results as given in patent US4960787A, “Certain pyrrolyl-substituted hydroxamic acid derivatives” (Ciba-Geigy Corporation, priority 1989, dated 1990).

How the values were obtained:
[1] = system: rat pleurisy model of inflammation; experiment: carrageenin-induced pleurisy model, exudate volume; assay type: in vivo; details: 10 mg/kg p.o. for two days at -1, 6, 24 and 45 hours relative to carrageenin injection, 48 hours after injection
[2] = system: 5-lipoxygenase; experiment: ex vivo inhibition of A-23187-stimulated LTB4 formation in whole blood after oral administration; details: dose of about 3 mg/kg p.o. to the dog
Method: Furthermore, the inhibition of 5-lipoxygenase is determined after oral or i.v. administration to rats or dogs by measuring ex vivo in whole blood the decrease of A-23187-stimulated LTB4 formation as compared to non-treated control animals.
(§1) Illustrative of the invention, the compound of example 1a, (E)-3-(1-cycloheptyl-1H-pyrrol-3-yl)-N-hydroxy-N-methyl-2-propenamide, inhibits the formation of 5-HETE [(5S)-5-hydroxy-6,8,11,14-eicosatetraenoic acid] and leukotriene B4 (LTB4, 5,12-dihydroxy-6,8,10,14-eicosatetraenoic acid) in A-23187-stimulated guinea pig polymorphonuclear leukocytes, e.g. at an IC50 of about 0.1 micromolar (1×10^-7 M).

[3] = target: T1, 5-lipoxygenase (Cavia porcellus, UniProt A0A286X958); experiment: inhibition of 5-HETE and LTB4 synthesis in A-23187-stimulated guinea pig polymorphonuclear leukocytes; assay type: cell-based; details: also printed as 1×10^-7 M, read-out: IC50, inhibition of the formation of 5-HETE and leukotriene B4 (LTB4)
T1 construct: A-23187-stimulated guinea pig polymorphonuclear leukocytes; endogenous in cells; host or cells: guinea pig polymorphonuclear leukocytes
T1 sequence (A0A286X958 1-674): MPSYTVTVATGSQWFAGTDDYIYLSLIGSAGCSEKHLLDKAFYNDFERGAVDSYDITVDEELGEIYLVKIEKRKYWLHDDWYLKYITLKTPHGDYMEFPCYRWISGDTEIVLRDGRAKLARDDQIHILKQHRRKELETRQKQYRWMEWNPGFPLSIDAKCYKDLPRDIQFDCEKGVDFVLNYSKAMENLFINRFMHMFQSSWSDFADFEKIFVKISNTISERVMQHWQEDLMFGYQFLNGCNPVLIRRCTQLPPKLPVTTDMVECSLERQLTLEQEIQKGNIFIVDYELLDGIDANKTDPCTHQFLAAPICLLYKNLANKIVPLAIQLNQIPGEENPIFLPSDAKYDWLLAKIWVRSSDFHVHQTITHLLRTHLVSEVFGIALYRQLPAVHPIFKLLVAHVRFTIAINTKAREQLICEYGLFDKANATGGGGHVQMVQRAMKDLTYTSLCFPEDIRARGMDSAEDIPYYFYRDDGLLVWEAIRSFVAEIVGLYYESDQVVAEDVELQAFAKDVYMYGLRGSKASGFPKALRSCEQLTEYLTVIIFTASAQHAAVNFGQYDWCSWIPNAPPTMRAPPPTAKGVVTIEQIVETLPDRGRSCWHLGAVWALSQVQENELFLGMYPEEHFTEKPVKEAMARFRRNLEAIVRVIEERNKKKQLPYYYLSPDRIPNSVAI
Method: 5-Lipoxygenase inhibition is determined e.g. by measuring the percent inhibition of the synthesis of 5-HETE [(5S)-5-hydroxy-6,8,11,14-eicosa-tetraenoic acid] and leukotriene B4 (LTB4, 5,12-dihydroxy-6,8,10,14-eicosatetraenoic acid) in A-23187-stimulated guinea pig polymorphonuclear leukocytes, essentially according to radiometric thin-layer chromatographic assays described by Walker and Dawson (J. Pharm. Pharmacol. 31: 778, 1979) and Jakschik and Lee (Nature 287: 51, 1980) used to measure the formation of 5-HETE and LTB4 -like products from ^14 C-arachidonic acid. IC50 values are determined graphically as the concentration of test compound at which the synthesis of 5-HETE and LTB4 -like products is reduced to 50% of their respective control values.
as §1

CN(O)C(=O)/C=C/c1ccn(C2CCCCCC2)c1 [example 1a, (E)-3-(1-cycloheptyl-1H-pyrrol-3-yl)-N-hydroxy-N-methyl-2-propenamide]
inhibition of exudate volume [1]: causes inhibition of exudate volume
inhibition of LTB4 formation as determined ex vivo [2]: 50%
IC50 [3]: ~100 nM
